Experimental data: PMC6747724, “Dynamic Metabolic Rewiring Enables Efficient Acetyl Coenzyme A Assimilation in Paracoccus denitrificans” (mBio, 2019)

Biological target: T1, Isocitrate lyase (Icl) (Paracoccus denitrificans, UniProt A1B1S0)
T1 construct: gene Pden_1363; Recombinant His6-tagged Icl (Pden_1363)
T1 sequence (A1B1S0 1-535): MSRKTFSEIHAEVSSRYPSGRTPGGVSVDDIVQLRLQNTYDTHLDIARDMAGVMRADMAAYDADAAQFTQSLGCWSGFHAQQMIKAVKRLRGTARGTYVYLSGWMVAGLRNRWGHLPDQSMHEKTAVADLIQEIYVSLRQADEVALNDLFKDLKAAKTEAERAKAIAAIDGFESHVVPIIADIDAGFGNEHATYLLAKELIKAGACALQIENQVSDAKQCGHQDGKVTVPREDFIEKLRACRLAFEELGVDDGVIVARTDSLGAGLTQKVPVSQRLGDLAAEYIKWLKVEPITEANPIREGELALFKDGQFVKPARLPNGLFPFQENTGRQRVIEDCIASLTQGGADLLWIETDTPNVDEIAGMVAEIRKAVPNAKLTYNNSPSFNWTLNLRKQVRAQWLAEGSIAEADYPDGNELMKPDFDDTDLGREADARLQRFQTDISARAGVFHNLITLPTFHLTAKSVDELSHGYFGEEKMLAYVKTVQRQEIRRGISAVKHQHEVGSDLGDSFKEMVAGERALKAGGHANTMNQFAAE
Test: spectrophotometric phenylhydrazine-glyoxylate assay with purified enzyme, […] min preincubation with 3-NPA at […]°C
Assay type: biochemical

`O=C(O)CC[N+](=O)[O-]` [3-NPA, 3-nitropropionate] gave an IC50 of 34 µM.
